Data reported in the supplement of paper PMC11451515.

System: NOMO1
Experiment: cell viability relative to DMSO control; higher = less cytotoxic
Details: 48 h
Outline: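 Before seeding, each leukemia line was adapted for at least four passages in each medium. NOMO1 or SEM cells (500 cells/well) and P12-Ichikawa cells (1000 cells/well) went into 1536-well plates at 5 μl, then received library compounds in DMSO by pin dosing across 11 threefold concentrations, 47 μM to 0.79 nM. Readout was CellTiter-Glo One luminescence after 48 h at 37°C, and viability is given as a per-plate percentage of DMSO wells, with cell-free wells as background.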

[1] = HPLM + 10% dialyzed FBS, 0.000781 µM
[2] = HPLM + 10% dialyzed FBS, 0.00234 µM
[3] = HPLM + 10% dialyzed FBS, 0.00702 µM
[4] = HPLM + 10% dialyzed FBS, 0.0211 µM
[5] = HPLM + 10% dialyzed FBS, 0.0632 µM
[6] = HPLM + 10% dialyzed FBS, 0.19 µM
[7] = HPLM + 10% dialyzed FBS, 0.569 µM
[8] = HPLM + 10% dialyzed FBS, 1.71 µM
[9] = HPLM + 10% dialyzed FBS, 5.12 µM
[10] = HPLM + 10% dialyzed FBS, 15.4 µM
[11] = HPLM + 10% dialyzed FBS, 46.1 µM
[12] = RPMI 5 mM glucose + 10% FBS, 0.000781 µM
[13] = RPMI 5 mM glucose + 10% FBS, 0.00234 µM
[14] = RPMI 5 mM glucose + 10% FBS, 0.00702 µM
[15] = RPMI 5 mM glucose + 10% FBS, 0.0211 µM
[16] = RPMI 5 mM glucose + 10% FBS, 0.0632 µM
[17] = RPMI 5 mM glucose + 10% FBS, 0.19 µM
[18] = RPMI 5 mM glucose + 10% FBS, 0.569 µM
[19] = RPMI 5 mM glucose + 10% FBS, 1.71 µM
[20] = RPMI 5 mM glucose + 10% FBS, 5.12 µM
[21] = RPMI 5 mM glucose + 10% FBS, 15.4 µM
[22] = RPMI 5 mM glucose + 10% FBS, 46.1 µM
[23] = RPMI 5 mM glucose + 10% dialyzed FBS, 0.000781 µM
[24] = RPMI 5 mM glucose + 10% dialyzed FBS, 0.00234 µM
[25] = RPMI 5 mM glucose + 10% dialyzed FBS, 0.00702 µM
[26] = RPMI 5 mM glucose + 10% dialyzed FBS, 0.0211 µM
[27] = RPMI 5 mM glucose + 10% dialyzed FBS, 0.0632 µM
[28] = RPMI 5 mM glucose + 10% dialyzed FBS, 0.19 µM
[29] = RPMI 5 mM glucose + 10% dialyzed FBS, 0.569 µM
[30] = RPMI 5 mM glucose + 10% dialyzed FBS, 1.71 µM
[31] = RPMI 5 mM glucose + 10% dialyzed FBS, 5.12 µM
[32] = RPMI 5 mM glucose + 10% dialyzed FBS, 15.4 µM
[33] = RPMI 5 mM glucose + 10% dialyzed FBS, 46.1 µM

Compound	cell viability [1]	cell viability [2]	cell viability [3]	cell viability [4]	cell viability [5]	cell viability [6]	cell viability [7]	cell viability [8]	cell viability [9]	cell viability [10]	cell viability [11]	cell viability [12]	cell viability [13]	cell viability [14]	cell viability [15]	cell viability [16]	cell viability [17]	cell viability [18]	cell viability [19]	cell viability [20]	cell viability [21]	cell viability [22]	cell viability [23]	cell viability [24]	cell viability [25]	cell viability [26]	cell viability [27]	cell viability [28]	cell viability [29]	cell viability [30]	cell viability [31]	cell viability [32]	cell viability [33]
N=C(N)NC(=N)N1CCOCC1	102%	84.7%	106%	103%	106%	111%	111%	103%	103%	89.6%	87.1%	95.2%	93.1%	115%	101%	111%	106%	102%	97.1%	98.7%	84.4%	87.4%	96.4%	93.3%	89.8%	88.8%	106%	104%	101%	87.2%	87.9%	86%	89.7%
COc1cc(Cl)cn2c(-c3cccc(NC4CNC4)n3)cnc12	123%	115%	118%	142%	152%	148%	141%	150%	129%	129%	111%	–	–	–	–	–	–	–	–	–	–	–	–	–	–	–	–	–	–	–	–	–	–
Nc1nc(NCCNc2ncc(-n3ccnc3)c(-c3ccc(Cl)cc3Cl)n2)ccc1[N+](=O)[O-]	–	–	–	–	–	–	–	–	–	–	–	105%	124%	126%	128%	127%	141%	144%	157%	141%	151%	165%	92.9%	128%	119%	136%	155%	160%	139%	147%	168%	147%	150%
OCCN(CCO)c1nc(N2CCCCC2)c2nc(N(CCO)CCO)nc(N3CCCCC3)c2n1	128%	112%	104%	128%	115%	112%	120%	111%	94.5%	105%	46.4%	120%	129%	119%	107%	114%	113%	105%	114%	111%	113%	92.4%	113%	115%	117%	115%	113%	114%	121%	114%	114%	110%	68%
NNc1nncc2ccccc12	115%	125%	131%	139%	144%	146%	134%	139%	132%	119%	128%	123%	121%	128%	126%	151%	124%	135%	130%	128%	137%	131%	121%	139%	121%	130%	137%	132%	141%	138%	134%	131%	141%
CC(C)Cn1cnc2c(N)nc3ccccc3c21	120%	124%	120%	116%	118%	121%	117%	112%	94.5%	102%	89.4%	98.9%	110%	116%	109%	114%	103%	108%	103%	108%	95.3%	105%	112%	107%	102%	128%	109%	110%	115%	103%	96%	98.8%	100%
O=C(NCc1ccccc1)c1csc(Nc2ccncn2)n1	86.8%	95.2%	101%	94%	121%	97.3%	97.6%	51.2%	26.7%	4.88%	2.11%	90.8%	82.1%	98.6%	83%	94.8%	98.2%	95.4%	56.6%	33.4%	4.95%	3.15%	92%	95%	93.2%	85.2%	93.7%	77.2%	103%	67.7%	33.9%	4.75%	3.19%
NC(CO)C(=O)NNCc1ccc(O)c(O)c1O (centres undefined)	96.1%	104%	106%	93.5%	107%	107%	91.6%	88.1%	90.6%	89%	77.2%	85.6%	101%	96.3%	95.9%	94.4%	94.1%	89.4%	85%	84.3%	83.7%	82.9%	89.4%	102%	107%	90.8%	98.8%	102%	91.9%	90%	96%	92.7%	82.6%
COC(=O)C/1=C(C)/N/C(=C(\C1C2=CC(=CC=C2)[N+]([O-])=O)C(=O)OCCCN3CCC(CC3)(C4=CC=CC=C4)C5=CC=CC=C5)C (centres undefined)	117%	114%	104%	104%	108%	114%	107%	107%	100%	102%	87.1%	101%	99.2%	93%	92.4%	97.7%	93.5%	88.3%	90.7%	83.3%	95.3%	81.8%	107%	93.8%	95.5%	97.1%	107%	109%	101%	94.4%	91.2%	90.5%	98.7%
